Assays:
Tg.AC mice = assay: UV-induced skin tumorigenesis in v-rasHa transgenic Tg.AC mice; assay type: in vivo, mouse
Text: Animals. Homozygous v-rasHa transgenic mice on an FVB/N background were used in in vivo experiments. To obtain keratinocytes with genetic ablation of Erbb2, loxP sites were inserted flanking exon 2 of Erbb2 such that splicing from exon1 to downstream introns upon Cre recombinase expression creates a frameshift mutation. Mice were maintained in our animal facility and provided with Purina lab chow (Nestle Purina PetCare, St. Louis, Mo.) and water ad libitum. The dorsal skin was clipped one day before treatment using electric clippers (Wahl, Sterling, II) and shaved on the day of treatment with a Remington Microscreen shaver (Madison, N.C.). […] The Ultraviolet-B TL 40W/12 RS bulbs (Philips, Somerset, N.J.) used emitted approximately 30% UVA, 70% UVB and <1% UVC, with a total output of 470 μW/cm^2, as measured with radiometric photodetector probes (Newport, Irvine, Calif.). For tumor experiments, homozygous Tg.AC mice were treated and exposed twice with an interval of 7 d. Tumor number was counted and tumor volume measured weekly using calipers. Skin-fold thickness was measured using calipers (Mitutoyo, Aurora, Ill.) to lightly pinch the dorsal skin. All animal procedures were performed in accordance with American Association of Laboratory Animal Care guidelines and approved by Creighton University's Institutional Animal Care and Use Committee.
Statistical methods. The tumor experiment was analyzed using two-way ANOVA. Statistical significance in other experiments was assessed using two-way ANOVA or Student's t-test with Bonferroni post-test. All experiments, excluding the tumor experiment, were replicated several times and consistent results obtained.
The skin tumorigenesis experiment was performed in v-ras^Ha transgenic Tg.AC mice because of their enhanced sensitivity to UV-induced skin tumorigenesis (13; 52). […] While the vehicle-treated mice continued to accrue tumors throughout the duration of the experiment, the AG825-treated group reached a plateau in tumor number by 7 weeks after the first UV exposure. By the end of the experiment, mean tumor volume was also 70% less in the AG825-treated group when compared to the vehicle control. Representative tumors from each treatment were examined histologically and all were benign squamous papillomas with similar differentiation status.
Upon activation, Erbb2 heterodimerizes with either EGFR or Erbb3 to transduce signals. Support for the hypothesis that Erbb2 increases skin carcinogenesis comes from our investigations of the functions of its dimerization partner EGFR. A tumor study was conducted to assess the role of EGFR in the clonal expansion of transformed cells to form benign tumors in the skin of v-ras^Ha transgenic Tg.AC mice. Inhibition of EGFR with the tyrphostin inhibitor AG1478 decreased the number of tumors that developed by about 50% in UV-exposed v-rasHa transgenic mice. Mean tumor volume was 80% less upon inhibition of EGFR-mediated signaling when compared to, UV-exposed and vehicle-treated controls.

Cdc25a = Cdc25a immunoblotting in keratinocytes; assay type: cell-based, mouse; details: vs appropriate controls
Description: Immunoblotting. Flash frozen skin was ground with a mortar and pestle on dry ice, homogenized in lysis buffer containing 10 mM Tris (pH 7.4), 150 mM NaCl, 10% glycerol, 1% Triton X-100, 1 mM EDTA, Complete Protease Inhibitor Cocktail (Roche, Germany), 1 mM Na3V O4, 1.5 μM EGTA, and 10 μM NaF. Protein was quantified using the Coomassie Brilliant Blue G-250 protein assay (Bio-Rad, Hercules, Calif.). The evenness of loading and transfer was determined by staining with Ponceau S and by actin immunoblotting. […]
Cell culture. […] Transfection efficiency was quantified by determining the proportion of the cells that incorporated the fluorescent Cy3-conjugated siRNA or GFP one day post-transfection. […]
In order to understand how Erbb2 regulates S-phase progression following UV irradiation, signaling pathways known to regulate progression into and through S-phase were examined. […] The effect of abrogation of Erbb2 on Cdc25a occurred post-transcriptionally, since no decrease in Cdc25a mRNA was detected in our microarray analysis using the Erbb2 inhibitor (32). […]

[1] = current Erbb2-targeted therapies; cited from earlier work
primary keratinocytes = details: cited from earlier work

Row | Compound | skin toxicity [1] | S-phase arrest in keratinocytes by chemotherapeutic agents (primary keratinocytes) | also measured
1 | COc1cc2ncnc(Nc3cccc(Cl)c3)c2cc1OC [AG1478] |  |  | mean tumor volume less than UV-exposed vehicle-treated controls (Tg.AC mice; EGFR inhibition): 80%; decrease in the number of tumors that developed (Tg.AC mice; UV-exposed v-rasHa transgenic mice, EGFR inhibition): about 50%; UV-induced carcinogenesis (FIG. 6) (Tg.AC mice; topical treatment 2 h prior to UV irradiation): suppress; Cdc25a immunoreactivity (Cdc25a): not decreased
2 | pertuzumab: current Erbb2-targeted therapy | Low incidence |  | 
3 | CC[C@@]1(O)C(=O)OCc2c1cc1n(c2=O)Cc2cc3ccccc3nc2-1 [camptothecin] |  | cause S-phase arrest | 
4 | O=c1[nH]cc(F)c(=O)[nH]1 [5-FU, 5-fluorouracil] |  | cause S-phase arrest | 
5 | COCC(=O)NC/C=C/c1ccc2ncnc(Nc3ccc(Oc4ccc(C)nc4)c(C)c3)c2c1 [CP-724714] | Low incidence |  | 

— patent US20080119530A1, “Method for treatment and prevention of ultraviolet light induced skin pathologies” (priority 2006, published 2008)
